The format of series [1] is in vivo, Lewis rats.
The next series is described as follows: in vivo. The conditions noted are these: mouse.
In a further series the test system is A549. Type of series: in vivo, mice. The conditions noted are these: Lung A549 ot, ip.
In another series the test system is A431. Type of series: in vivo, mice. The conditions noted are these: Skin A431 id; Topical, 2 week.
For another series, the system named is AGS. Type of series: in vivo, mice. The conditions noted are these: Gastric AGS sc, ip.
The test system of a further series is U87. Description: U87 glioma sc xenograft. The conditions noted are these: 20 mg/kg/d alone × 12 d, ip.
The next series has as its system U87 glioblastoma cells. Description: Apoptosis by Annexin V-FITC / propidium iodide staining. Type of series: cell-based. The conditions noted are these: 24 hours; PGIA 4 200 μM, PV 116 40 μM, alone or combined. How it is done: The potential synergy between PV and PGIA in inhibiting the growth of U87 glioblastoma cells was assessed by isobolographic analysis. After treatment with PV 116 or PGIA 4 alone or in combination for 24 hours, the following as determined: a) cell growth using the MTT assay (Promega, Madison, Wis.) and b) apoptosis by staining with Annexin V-FITC (Invitrogen) and propidium iodide 0.5 μg/ml and analyzing the fluorescence intensity by FACS caliber.

The subject of series [2] is U87 glioblastoma cell line. Description: 24-hour growth inhibition of glioblastoma cells. Type of series: cell-based. The conditions noted are these: 24 h, read-out: 24-h 1c50.
In series [3] the test system is A549 human lung cancer xenografts. Kind of series: A549 sc xenografts, i.v. PS in nanocarrier vs sulindac. Type of series: in vivo, mice. The conditions noted are these: PS in nanocarrier, intravenously 60 mg/kg/d ×2d/week.
Series [4] relates to A549 human lung cancer cells. Kind of series: Aerosol PS in orthotopic GFP-A549 lung cancer model. Type of series: in vivo, mice. The conditions noted are these: aerosol 50 mg/mL PS for 8 minutes, treatment group. How it is done: PS dissolved in ethanol was placed in the baffle and aerosolized with the ultrasonic atomizer. […] The air flow in the system used to deliver by inhalation the test drug to mice was controlled by an inlet air regulator and a vacuum pump which draws air from the system.
Mice received 50 mg/mL PS for 8 minutes. After one week of treatment, 1 million A549 human lung cancer cells stably expressing green fluorescence protein (GFP-A549) were injected into the left lung through a 5 mm incision) was made to the left side of the chest. GFP allows the detection and quantification of these cells. […] Inhalation treatment, suspended for 2 days post-surgery, continued for 6 weeks.

For series [5], the system named is AGS human gastric xenografts. The conditions noted are these: nude mice; alone or with esterase inhibitor; cited from earlier work.
A short description of series [6]: Pharmacokinetics of phospho-sulindac in wild type and Ces1c knockout mice. Type of series: in vivo. The conditions noted are these: intraperitoneal and intravenous administration. The source says: This is reflected in the enhanced distribution of intact phospho-sulindac in various tissues.
A short description of series [7]: Drug levels after inhalation vs oral administration of PS. Type of series: in vivo, mice.
Another series deals with platelets. Kind of series: Ex vivo platelet aggregometry, collagen agonist. Type of series: in vivo, mice. The conditions noted are these: 40% MTD; collagen 1 μg/mL. How it is done:
Platelet aggregation was studied using an Aggregometer (Chrono-Log, Havertown, Pa.). […] Maximum inhibition of aggregation occurred at 1 hour post treatment (FIG. 34).

The test system of series [8] is lung and pancreatic carcinoma (Lewis lung carcinoma). Description: Efficacy in Ces1c knockout vs wild type mice. Type of series: in vivo.
The nature of series [9]: Hydrolysis of PS in PLLA(10K)-PEG(2K) nanocarrier, control pharmacokinetic experiments. Type of series: in vivo. How it is done: Protection of phospho-NSAIDs from hydrolysis by encapsulation in nanocarriers enhances their anti-cancer efficacy. For example, PS was formulated in a nanocarrier suitable for iv administration [PLLA(10K)-PEG(2K)]. […] Nude mice bearing subcutaneous A549 human lung cancer xenografts were then given intravenously PS 60 mg/kg/d ×2d/week and the equimolar dose of sulindac (40 mg/kg.) Sulindac was ineffective in inhibiting the growth of the xenografts whereas PS was (32% vs. 75%; p<0.012). […] In other words, the anticancer efficacy of PS is not the result of its being metabolized to sulindac (Xie G, et al., Brit J. Pharmacol. 2012; 165:2152-66; Wong et al., J Pharmacol Exp Ther. 2012; 340:422-32).

A short description of series [10]: Ferric chloride-induced carotid artery thrombus. Type of series: in vivo, mice. The conditions noted are these: oral, 40% of MTD, injury one hour later; FIG. 32B. How it is done: In this model the carotid artery is briefly exposed to FeCl3 leading to thrombus formation at the site of the injury and occlusion of blood flow. […] Flow rate was then measured for 30 minutes (FIG. 32).

The test system of a further series is MDA. Kind of series: MDA breast sc xenograft. The conditions noted are these: 120 mg/kg/d × 22 d, ip.
A further series has as its system BT-20. Description: BT-20 breast sc xenograft. The conditions noted are these: Breast BT-20 sc; 120 mg/kg/d × 28 d, ip.
A further series has as its system HT-29. Description: HT-29 colon sc xenograft. The conditions noted are these: Colon HT-29 sc; 120 mg/kg/d × 12 d, ip.
Series [11] is described as follows: Ulcerative colitis (IBD), DSS. The conditions noted are these: 300 mg/kg/d × 10 d, po.
The next series concerns HCT116. Description: HCT116 colon xenograft. The conditions noted are these: Colon HCT116 sc; 100 mg/kg/d × 12 d, ip.
Another series has as its system MCF7. Description: MCF7 breast sc xenograft.

The values below come from patent US20140315834A1 (Medicon Pharmaceuticals, Inc., priority 2012, published 2014).

Where two headings read alike, the source gives them in different places. A value given as a limit tells only on which side of the number the result lay.

`CCOP(=O)(OCC)OCCCCNC(=O)C(C)c1ccc(CC(C)C)cc1` (stereo not shown) [Compound 1, Phosphoric acid diethyl ester 4-[2-(4-isobutyl-phenyl)-propionylamino]-butyl ester]: in series [1] (Dose 120 mg/kg ip, 30 minutes prior to testing), the “Latency, sec Mean ± SEM” value stood at 23.42 ± 1.16 s. In “in vivo” (nude, ip), this compound returned an MTD at 6 week of 160 mg/kg/day. Besides, the Reduction with A549 (160 mg/kg/d × 6 week) was found to be 75%; with A431, 46%; in the series on AGS (160 mg/kg/d × 3 week), 34%.
In the series “in vivo” (nude, ip), `CCOP(=O)(OCC)OCC(CNC(=O)C(C)c1ccc(CC(C)C)cc1)OP(=O)(OCC)OCC` (stereo not shown) [Compound 4, Phospho-Ibuprofen Gylcerol Amide] showed an MTD at 12 days of 20 mg/kg/day. Further, the MTD at 1 week in the series “in vivo” (wt (wild type), po) was > 600 mg/kg/day. This compound showed a Reduction in the series on U87 of 52%. The “fold-increase of annexinV (+) cells” value in the series on U87 glioblastoma cells turned out to be 1.8 fold. In addition, the IC50 in series [2] came to 87 µM.
As for `CCOP(=O)(OCC)OCCCCOC(=O)CC1=C(C)/C(=C/c2ccc([S+](C)[O-])cc2)c2ccc(F)cc21` (stereo not shown) [Compound 96, Phospho-Sulindac], in series [1] (carboxylic esters, systemic, also topical in a hydrogel), the analgesic effect result is recorded as “effective”. Besides, the “inhibition of growth of xenografts” value in [3] was 75%. The “death rate by the end of the study” value in series [4] was “less than 10%”. Further, the “inhibition of growth of AGS xenografts” value in series [5] is given as 28%. For the same compound, the Bleeding time (150 mg/kg orally, 1 hour after administration) worked out at 88 ± 7 s. In addition, the “prolongation of the bleeding time” value (treated mice) is recorded as “no prolongation of the bleeding time”. Further, in [6], the “less inactivation in Ces1c knockout mice vs wild type” value is recorded as “approximately 2 fold”. Moreover, the “PS levels in plasma” value in series [7] (after inhalation or oral gavage) is listed as “Undetectable”. Besides, the results for the “level of intact PS in the lungs” value in series [7] (inhalational 6.5 mg/kg body weight) and in series [7] (oral 150 mg/kg body weight) were > 20 nmol/g and < 2 nmol/g, respectively. Moreover, the “total drug levels (PS plus metabolites) in lungs, inhalation compared to oral” value in [7] (inhalational 6.5 mg/kg vs oral 150 mg/kg) was “significantly higher”. In addition, the “time of maximum inhibition of aggregation post treatment” value with platelets came to 1 h. In addition, the “efficacy against Lewis lung carcinoma (LLC) in Ces −/− mice” value in [8] (150 mg/kg, i.p., subcutaneous LLC tumors, FIG. 35) was “more efficacious”. In addition, in series [8] (mouse, in vivo), the “more effective in inhibiting growth of lung and pancreatic carcinoma in Ces1c knockout vs wild type mice” value was “approximately 2 fold”. The “PS in nanocarrier hydrolyzed to sulindac” value in series [9] was < 6%. Further, the “carotid artery blood flow following injury with FeCl3” value in [10] is “flow rate is maintained”.
For `CCCC(CCC)C(=O)Oc1ccc(COP(=O)(OCC)OCC)cc1` [Compound 116, Phosphovalproic Acid], the Reduction worked out at 63% in the series on MDA; 80% in the series on A549 (100 mg/kg/d × 6 week); 37% in the series with BT-20; 40% in the series with HT-29; 81% in the series on AGS (100 mg/kg/d × 3 week). The “fold-increase of annexinV (+) cells” value in the series on U87 glioblastoma cells is on record as 3.0 fold.
“phospho-aspirin glycerol amide [Compound 194]”: in series [1] (rat, in vivo, ip, 150 mg/kg), the “Latency, sec Mean ± SEM” value turned out to be 19.92 ± 0.78 s. In addition, the Reduction in series [11] is 30-48%; in the series on HCT116, 18%; in the series with MCF7 (120 mg/kg/d × 29 d, po, prevention), 55%; with MCF7 (500 mg/kg/d × 12 d, ip, treatment), 80-100%.
